Results as given in patent US7528252B2, “Derivatives of triazoly-imidazopyridine useful as ligands of the adenosine A2a receptor and their use as medicaments” (Sigma-Tau Industrie Farmaceutiche Riunite S.p.A., priority 2002, dated 2009).

What was measured:
[1] = target: T1, human A1 subtype adenosine receptor (Homo sapiens, UniProt P30542); assay: Affinity towards the adenosine A1 receptor ([3H]-DPCPX binding, CHO-K1 membranes); settings: read-out: A1 Ki (nM) ± sd
T1 construct: expressed in transfected cells; host or cells: CHO-K1
T1 sequence (P30542 1-326): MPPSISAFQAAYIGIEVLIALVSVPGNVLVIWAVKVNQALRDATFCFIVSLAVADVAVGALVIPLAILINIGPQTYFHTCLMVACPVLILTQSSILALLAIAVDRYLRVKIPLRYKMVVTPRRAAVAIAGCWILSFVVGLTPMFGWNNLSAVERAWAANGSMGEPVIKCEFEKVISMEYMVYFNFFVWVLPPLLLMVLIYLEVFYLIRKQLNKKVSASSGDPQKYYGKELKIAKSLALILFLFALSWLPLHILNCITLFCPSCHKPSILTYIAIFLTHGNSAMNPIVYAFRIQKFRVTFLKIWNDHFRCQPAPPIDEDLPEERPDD

α1(non-selective) = assay: Receptor binding study, α1; settings: 1 μM; mean values, n = 2
D5 (h) = D5 (h) (Homo sapiens, UniProt P21918); assay: Receptor binding study, D5; settings: mean values, n = 2, read-out: percent inhibition of control specific binding
D5 (h), sequence (P21918 whole entry): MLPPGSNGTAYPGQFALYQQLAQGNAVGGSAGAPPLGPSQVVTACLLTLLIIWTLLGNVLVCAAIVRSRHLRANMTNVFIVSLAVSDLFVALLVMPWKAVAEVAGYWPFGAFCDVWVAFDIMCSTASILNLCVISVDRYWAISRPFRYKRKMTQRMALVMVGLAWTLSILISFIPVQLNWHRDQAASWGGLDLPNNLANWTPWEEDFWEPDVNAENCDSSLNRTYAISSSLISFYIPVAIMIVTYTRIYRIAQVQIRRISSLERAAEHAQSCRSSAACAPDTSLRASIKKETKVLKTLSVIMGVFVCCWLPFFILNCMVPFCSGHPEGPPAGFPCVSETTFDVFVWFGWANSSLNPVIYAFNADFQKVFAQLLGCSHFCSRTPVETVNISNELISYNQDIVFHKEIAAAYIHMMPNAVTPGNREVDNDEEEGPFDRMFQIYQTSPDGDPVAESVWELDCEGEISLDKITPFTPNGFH

Kainate = assay: Receptor binding study, Kainate; settings: 1 μM; mean values, n = 2
H1 (central) = H1 (central) (Cavia porcellus, UniProt P31389); assay: Receptor binding study, H1 (central); settings: mean values, n = 2, read-out: percent inhibition of control specific binding
H1 (central), sequence (P31389 whole entry): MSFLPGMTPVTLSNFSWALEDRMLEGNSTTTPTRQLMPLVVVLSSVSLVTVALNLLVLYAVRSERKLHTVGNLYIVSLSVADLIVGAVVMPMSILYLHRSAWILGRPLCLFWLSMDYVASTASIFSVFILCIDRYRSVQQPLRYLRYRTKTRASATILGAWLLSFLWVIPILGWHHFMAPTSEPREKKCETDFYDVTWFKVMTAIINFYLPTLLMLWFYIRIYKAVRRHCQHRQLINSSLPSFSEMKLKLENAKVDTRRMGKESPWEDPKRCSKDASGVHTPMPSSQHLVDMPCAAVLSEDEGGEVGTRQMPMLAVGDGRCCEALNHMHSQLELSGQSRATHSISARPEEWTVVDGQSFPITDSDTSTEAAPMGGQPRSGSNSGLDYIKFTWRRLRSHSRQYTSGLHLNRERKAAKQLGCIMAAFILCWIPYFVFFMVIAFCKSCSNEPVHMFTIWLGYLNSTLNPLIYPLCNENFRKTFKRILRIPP

M5 = target: T2, M5 (Homo sapiens, UniProt P08912); assay: Receptor binding study, M5; settings: 1 μM; mean values, n = 2; read-out: percent inhibition of control specific binding
T2 sequence (P08912 1-532): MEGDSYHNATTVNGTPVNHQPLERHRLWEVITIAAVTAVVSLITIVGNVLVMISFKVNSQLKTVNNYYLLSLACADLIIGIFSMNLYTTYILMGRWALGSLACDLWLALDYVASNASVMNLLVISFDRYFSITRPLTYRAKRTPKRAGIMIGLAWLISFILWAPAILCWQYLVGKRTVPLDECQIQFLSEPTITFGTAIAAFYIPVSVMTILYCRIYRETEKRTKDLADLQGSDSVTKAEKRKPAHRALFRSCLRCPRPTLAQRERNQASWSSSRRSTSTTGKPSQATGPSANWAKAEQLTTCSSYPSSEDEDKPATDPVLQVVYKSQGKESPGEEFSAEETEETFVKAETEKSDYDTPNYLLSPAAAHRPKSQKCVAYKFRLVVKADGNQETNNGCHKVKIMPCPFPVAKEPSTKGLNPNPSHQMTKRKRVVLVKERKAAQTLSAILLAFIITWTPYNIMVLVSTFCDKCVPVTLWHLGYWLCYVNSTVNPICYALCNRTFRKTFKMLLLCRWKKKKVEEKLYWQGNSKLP

5-HT1A = 5-HT1A (Homo sapiens, UniProt P08908); assay: Receptor binding study, 5-HT1A; settings: mean values, n = 2, read-out: percent inhibition of control specific binding
5-HT1A, sequence (P08908 whole entry, species assumed): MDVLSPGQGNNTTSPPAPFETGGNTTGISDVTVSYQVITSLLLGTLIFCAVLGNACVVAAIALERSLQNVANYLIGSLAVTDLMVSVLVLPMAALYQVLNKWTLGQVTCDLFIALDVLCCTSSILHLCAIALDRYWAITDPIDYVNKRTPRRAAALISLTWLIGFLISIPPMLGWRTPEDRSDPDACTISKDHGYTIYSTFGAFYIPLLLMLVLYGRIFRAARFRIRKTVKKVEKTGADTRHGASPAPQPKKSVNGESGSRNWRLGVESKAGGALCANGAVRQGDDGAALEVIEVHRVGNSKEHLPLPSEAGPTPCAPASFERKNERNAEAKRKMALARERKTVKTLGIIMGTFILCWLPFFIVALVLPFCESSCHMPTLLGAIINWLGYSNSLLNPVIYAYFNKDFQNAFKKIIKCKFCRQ

5-HT2A = 5-HT2A (Homo sapiens, UniProt P28223); assay: Receptor binding study, 5-HT2A; settings: mean values, n = 2, read-out: percent inhibition of control specific binding
5-HT2A, sequence (P28223 whole entry, species assumed): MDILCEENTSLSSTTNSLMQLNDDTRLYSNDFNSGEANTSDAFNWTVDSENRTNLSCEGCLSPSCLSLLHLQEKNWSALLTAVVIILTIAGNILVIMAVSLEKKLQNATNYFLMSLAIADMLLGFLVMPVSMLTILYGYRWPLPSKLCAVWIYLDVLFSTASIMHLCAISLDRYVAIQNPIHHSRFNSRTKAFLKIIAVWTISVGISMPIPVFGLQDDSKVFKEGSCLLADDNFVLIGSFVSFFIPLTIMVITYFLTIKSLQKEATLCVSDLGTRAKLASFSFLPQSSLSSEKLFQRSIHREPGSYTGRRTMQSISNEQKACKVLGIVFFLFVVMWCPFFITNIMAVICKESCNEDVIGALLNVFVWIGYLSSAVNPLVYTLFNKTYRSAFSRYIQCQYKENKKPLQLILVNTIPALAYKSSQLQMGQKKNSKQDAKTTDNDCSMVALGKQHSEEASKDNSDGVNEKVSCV

5-HT3 (h) = 5-HT3 (h) (Homo sapiens, UniProt P46098); assay: Receptor binding study, 5-HT3; settings: mean values, n = 2, read-out: percent inhibition of control specific binding
5-HT3 (h), sequence (P46098 24-478): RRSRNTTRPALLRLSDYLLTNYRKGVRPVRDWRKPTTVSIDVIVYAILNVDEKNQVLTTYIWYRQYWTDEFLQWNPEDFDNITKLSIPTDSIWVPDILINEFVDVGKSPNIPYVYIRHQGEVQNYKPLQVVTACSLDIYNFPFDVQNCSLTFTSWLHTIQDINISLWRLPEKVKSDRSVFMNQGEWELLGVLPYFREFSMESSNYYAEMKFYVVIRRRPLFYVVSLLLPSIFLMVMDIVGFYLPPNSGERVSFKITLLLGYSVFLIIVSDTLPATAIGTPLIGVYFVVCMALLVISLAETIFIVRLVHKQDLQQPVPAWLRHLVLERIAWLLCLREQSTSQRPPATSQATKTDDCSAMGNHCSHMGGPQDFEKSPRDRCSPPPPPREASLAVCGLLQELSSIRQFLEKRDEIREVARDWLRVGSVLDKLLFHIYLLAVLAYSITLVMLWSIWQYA

5-HT6 (h) = 5-HT6 (h) (Homo sapiens, UniProt P50406); assay: Receptor binding study, 5-HT6; settings: mean values, n = 2, read-out: percent inhibition of control specific binding
5-HT6 (h), sequence (P50406 whole entry): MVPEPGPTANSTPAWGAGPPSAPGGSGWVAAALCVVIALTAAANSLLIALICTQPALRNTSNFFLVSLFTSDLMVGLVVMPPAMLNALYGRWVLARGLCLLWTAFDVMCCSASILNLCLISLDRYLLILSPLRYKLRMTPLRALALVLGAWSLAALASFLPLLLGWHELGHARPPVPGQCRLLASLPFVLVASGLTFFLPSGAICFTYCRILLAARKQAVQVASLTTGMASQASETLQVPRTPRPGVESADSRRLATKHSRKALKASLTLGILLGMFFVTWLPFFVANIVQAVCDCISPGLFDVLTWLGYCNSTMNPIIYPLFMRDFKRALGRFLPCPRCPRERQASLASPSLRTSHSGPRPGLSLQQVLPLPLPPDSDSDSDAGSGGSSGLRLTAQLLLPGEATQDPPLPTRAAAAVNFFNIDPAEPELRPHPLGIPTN

NE transporter = NE transporter (Homo sapiens, UniProt P23975); assay: Receptor binding study, NE transporter; settings: mean values, n = 2, read-out: percent inhibition of control specific binding
NE transporter, sequence (P23975 whole entry): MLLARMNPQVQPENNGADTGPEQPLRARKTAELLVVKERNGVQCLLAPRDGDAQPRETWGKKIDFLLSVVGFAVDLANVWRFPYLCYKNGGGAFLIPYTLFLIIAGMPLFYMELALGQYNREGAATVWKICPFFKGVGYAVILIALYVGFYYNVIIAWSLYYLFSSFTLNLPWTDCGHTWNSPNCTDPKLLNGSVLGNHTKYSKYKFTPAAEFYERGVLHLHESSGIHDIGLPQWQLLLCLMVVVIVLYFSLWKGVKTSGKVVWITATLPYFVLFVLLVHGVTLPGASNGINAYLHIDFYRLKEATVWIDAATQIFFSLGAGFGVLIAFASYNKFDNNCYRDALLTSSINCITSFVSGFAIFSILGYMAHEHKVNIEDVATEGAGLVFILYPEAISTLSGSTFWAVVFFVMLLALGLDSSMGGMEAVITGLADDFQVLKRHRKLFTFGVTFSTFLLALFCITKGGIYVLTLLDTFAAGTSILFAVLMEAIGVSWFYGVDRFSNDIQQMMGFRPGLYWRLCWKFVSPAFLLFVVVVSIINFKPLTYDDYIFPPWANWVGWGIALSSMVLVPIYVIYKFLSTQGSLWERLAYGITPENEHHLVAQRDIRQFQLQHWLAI

DA transporter = DA transporter (Homo sapiens, UniProt Q01959); assay: Receptor binding study, DA transporter; settings: mean values, n = 2, read-out: percent inhibition of control specific binding
DA transporter, sequence (Q01959 whole entry, species assumed): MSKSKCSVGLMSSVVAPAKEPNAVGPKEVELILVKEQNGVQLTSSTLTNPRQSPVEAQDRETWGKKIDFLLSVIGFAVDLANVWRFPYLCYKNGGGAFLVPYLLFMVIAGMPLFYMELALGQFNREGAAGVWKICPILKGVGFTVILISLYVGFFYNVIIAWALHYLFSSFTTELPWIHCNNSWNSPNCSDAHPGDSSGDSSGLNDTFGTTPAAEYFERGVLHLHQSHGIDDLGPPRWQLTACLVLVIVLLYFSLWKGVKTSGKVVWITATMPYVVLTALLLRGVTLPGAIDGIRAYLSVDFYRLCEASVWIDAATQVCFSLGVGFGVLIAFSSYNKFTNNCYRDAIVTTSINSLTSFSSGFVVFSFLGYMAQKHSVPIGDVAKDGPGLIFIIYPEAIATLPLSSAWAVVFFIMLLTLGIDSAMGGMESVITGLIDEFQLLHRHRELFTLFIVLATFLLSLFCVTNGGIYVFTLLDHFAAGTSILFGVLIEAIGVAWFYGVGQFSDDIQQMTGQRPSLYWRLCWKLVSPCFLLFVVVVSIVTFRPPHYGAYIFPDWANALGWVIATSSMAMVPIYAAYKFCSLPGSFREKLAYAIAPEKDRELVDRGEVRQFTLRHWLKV

CD1 male mice [2] = assay: Effects on spontaneous motor activity in mice; type: in vivo; settings: for Horizontal activity / Vertical activity: mean ± s.e.
Experimental: For this study, type CD1 male mice (n=8) were used. The effects of the products under study and of the reference compounds were evaluated using an apparatus consisting of a Plexiglas cage (40 cm×40 cm) surrounded by a series of photocells which monitor the movements of the animals placed inside, connected a computerised system, through which, the signals are collected and later elaborated.
Tests were carried out, after endoperitoneal administration of the products. 15 minutes after treatment, the treated animals, alternating with the controls, were placed inside the cage so as to record their spontaneous movements over a total period of 45 minutes broken down into two observation intervals (15′-45′ and 45′-60′, with respect to the time after treatment).
To examine the possible effects of the compounds studied on motor activity, the following parameters were considered: horizontal activity, vertical activity: total distance.
Except for CGS 21680 (reference compound, described in EP 0 277 917, Ciba-Geigy) which was dissolved in 0.9% NaCl, the products studied were solubilised in DMSO and then diluted in Cremofor EL and 0.9% NaCl (final concentrations: DMSO 15%, Cremofor EL 15%, NaCl 0.9%.

CD1 male mice [3] = assay: Capacity of the products to induce catalepsy in mice; type: in vivo; settings: endoperitoneal, 30 minutes prior to the test
Experimental: 10 CD1 male mice were used per group. For this test, a steel bar, 10 cm long, was placed at a height of 4.5 cm above the support surface. Onto this, were placed the front legs of the animals. The presence of catalepsy was determined by measuring the time (in seconds) the animal remained in the posture placed. Later, this parameter was placed relatively, on a scale of rising values (0 to 5) through which, the degree of catalepsy determined in both control animals and in these subjected to treatment with the substances under test could be proportionately expressed.
The reference products and these in this study were administered endoperitoneally, in a volume of 10 ml/kg, 30 minutes prior to the test.
Except for CGS 21680 (reference compound) which was dissolved in 0.9% NaCl, the products in the study and the control antagonist ZM 241385 were solubilised in DMSO and then diluted in Cremofor EL and 0.9% NaCl (final concentrations: DMSO 15%, Cremofor EL 15%, NaCl 0.9%).

human A2a receptor [4] = target: T3, human A2a receptor (Homo sapiens, UniProt P29274); settings: ratio of receptor affinity (selectivity)
T3 sequence (P29274 whole entry): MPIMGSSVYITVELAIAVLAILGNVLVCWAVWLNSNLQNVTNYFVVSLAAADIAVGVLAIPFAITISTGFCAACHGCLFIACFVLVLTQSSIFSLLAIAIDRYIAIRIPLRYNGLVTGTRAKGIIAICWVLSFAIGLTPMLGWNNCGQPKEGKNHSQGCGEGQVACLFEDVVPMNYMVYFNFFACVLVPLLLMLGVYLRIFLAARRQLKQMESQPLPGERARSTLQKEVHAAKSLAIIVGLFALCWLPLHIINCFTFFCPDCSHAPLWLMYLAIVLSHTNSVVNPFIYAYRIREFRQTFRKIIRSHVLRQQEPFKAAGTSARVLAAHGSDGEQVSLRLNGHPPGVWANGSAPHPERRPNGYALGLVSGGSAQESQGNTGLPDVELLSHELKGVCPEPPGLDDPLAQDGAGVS

human A2a receptor [5] = target: T3, human A2a receptor; assay: biochemical
[6] = 2.5 mg/kg endoperitoneal, interval 15′-45′ from treatment
[7] = 2.5 mg/kg endoperitoneal, interval 45′-60′ from treatment
[8] = 5 mg/kg endoperitoneal, interval 15′-45′ from treatment
[9] = 5 mg/kg endoperitoneal, interval 45′-60′ from treatment
[10] = 10 mg/kg endoperitoneal, interval 15′-45′ from treatment
[11] = 10 mg/kg endoperitoneal, interval 45′-60′ from treatment
[12] = 20 mg/kg endoperitoneal, interval 15′-45′ from treatment
[13] = 20 mg/kg endoperitoneal, interval 45′-60′ from treatment

SMILES	Ki [1] [nM]	percent inhibition of control specific binding (α1(non-selective))	inhibition at 1 µM (D5 (h)) [%]	percent inhibition of control specific binding (Kainate)	inhibition at 1 µM (H1 (central)) [%]	inhibition at 1 µM (M5) [%]	inhibition at 1 µM (5-HT1A) [%]	inhibition at 1 µM (5-HT2A) [%]	inhibition at 1 µM (5-HT3 (h)) [%]	inhibition at 1 µM (5-HT6 (h)) [%]	inhibition at 1 µM (NE transporter) [%]	inhibition at 1 µM (DA transporter) [%]	further results
CCCCc1nc(N)c2nc(-n3nccn3)n(C)c2n1 [ST 1535, 2-butyl-9-methyl-8-(2H-1,2,3-triazol-2-yl)-9H-purine-6-ylamine]	107 ± 40	— (The symbol — indicates an inhibition of less than 10%.)	< 10	— (The symbol — indicates an inhibition of less than 10%.)	< 10	< 10	< 10	< 10	< 10	< 10	< 10	< 10	Horizontal activity (CD1 male mice [2]; [6]): 5386 ± 505; Vertical activity (CD1 male mice [2]; [6]): 282 ± 79; Horizontal activity (CD1 male mice [2]; [7]): 1693 ± 266; Vertical activity (CD1 male mice [2]; [7]): 68 ± 21; Horizontal activity (CD1 male mice [2]; [8]): 7549 ± 508; Vertical activity (CD1 male mice [2]; [8]): 249 ± 41; Horizontal activity (CD1 male mice [2]; [9]): 2353 ± 199; Vertical activity (CD1 male mice [2]; [9]): 76 ± 16; Horizontal activity (CD1 male mice [2]; [10]): 7434 ± 526; Vertical activity (CD1 male mice [2]; [10]): 219 ± 64; Horizontal activity (CD1 male mice [2]; [11]): 2784 ± 345; Vertical activity (CD1 male mice [2]; [11]): 71 ± 32; Horizontal activity (CD1 male mice [2]; [12]): 10524 ± 670; Vertical activity (CD1 male mice [2]; [12]): 486 ± 84; Horizontal activity (CD1 male mice [2]; [13]): 3321 ± 363; Vertical activity (CD1 male mice [2]; [13]): 148 ± 36; dose from which a significant increase of the spontaneous motor activity in mice is observed (CD1 male mice [2]; endoperitoneal): ≥ 5 mg/kg; appearance of catalepsy in mice (FIG. 1) (CD1 male mice [3]): none of them brought about the appearance of catalepsy in mice; KiA1/KiA2a (human A2a receptor [4]): 47; Ki (human A2a receptor [5]): 2.29 ± 0.58 nM
CCCCCc1nc(N)c2nc(-n3nccn3)n(C)c2n1 [ST 2097, 9-methyl-2-pentyl-8-(2H-1,2,3-triazol-2-yl)-9H-purine-6-ylamine]	26.2 ± 6.55	— (The symbol — indicates an inhibition of less than 10%.)	< 10	— (The symbol — indicates an inhibition of less than 10%.)	< 10	< 10	< 10	< 10	< 10	< 10	< 10	< 10	
